molecular target: Neuraminidase (Influenza A virus (A/Puerto Rico/8/1934(H1N1)), UniProt P03468); assay: Inhibitory activity against influenza A neuraminidase from influenza A/PR/8/34 (H1N1).; parameters: species or system Influenza A virus (strain: A/PR/8/34)

Row | SMILES | IC50
1 | CC[C@@H](C)O[C@@H]1C=C(C(=O)O)C[C@H](N)[C@H]1NC(C)=O | 10 nM
2 | CCO[C@@H]1C=C(C(=O)O)C[C@H](N)[C@H]1NC(C)=O | 2000 nM
3 | CC(=O)N[C@@H]1[C@@H](N)CC(C(=O)O)=C[C@H]1OC(Cc1ccccc1)Cc1ccccc1 | > 1000 nM
4 | CCC(CC)O[C@@H]1C(F)=C(C(=O)O)C[C@H](N)[C@H]1NC(C)=O | 3 nM
5 | CCCCCCC[C@H](CC)O[C@@H]1C=C(C(=O)O)C[C@H](N)[C@H]1NC(C)=O | 1 nM
6 | CC(=O)N[C@@H]1[C@@H](N)CC(C(=O)O)=C[C@H]1OCc1ccccc1 | 620 nM
7 | CCCO[C@@H]1C=C(C(=O)O)C[C@H](N=C(N)N)[C@H]1NC(C)=O | 2 nM
8 | CCC(CC)O[C@@H]1C=C(C(=O)O)[C@@H](C)[C@H](N)[C@H]1NC(C)=O | 1500 nM
9 | CCCCCCCCCCO[C@@H]1C=C(C(=O)O)C[C@H](N)[C@H]1NC(C)=O | 600 nM
10 | CO[C@@H]1C=C(C(=O)O)C[C@H](N)[C@H]1NC(C)=O | 3700 nM
11 | CC(=O)N[C@H]1[C@H](O)C=C(C(=O)O)C[C@@H]1N=C(N)N | 100 nM
12 | CC[C@@H](CCC1CCCCC1)O[C@@H]1C=C(C(=O)O)C[C@H](N)[C@H]1NC(C)=O | 1 nM
13 | CC[C@H](C)O[C@@H]1C=C(C(=O)O)C[C@H](N)[C@H]1NC(C)=O | 9 nM
14 | CCCCCCCCCO[C@@H]1C=C(C(=O)O)C[C@H](N)[C@H]1NC(C)=O | 210 nM
15 | CC(=O)N[C@@H]1[C@@H](N)CC(C(=O)O)=C[C@H]1OC(CCCc1ccccc1)CCCc1ccccc1 | > 1000 nM
16 | CC[C@@H](CC1CCCCC1)O[C@@H]1C=C(C(=O)O)C[C@H](N)[C@H]1NC(C)=O | 16 nM
17 | CCC(CC)O[C@@H]1C(C)=C(C(=O)O)C[C@H](N)[C@H]1NC(C)=O | 2300 nM
18 | CCCO[C@@H]1C=C(C(=O)O)C[C@H](N)[C@H]1NC(C)=O | 180 nM
19 | CC[C@H](CCc1ccccc1)O[C@@H]1C=C(C(=O)O)C[C@H](N)[C@H]1NC(C)=O | 12 nM
20 | CC(=O)N[C@@H]1[C@@H](N)CC(C(=O)O)=C[C@H]1OCC(C)C | 200 nM
21 | CCCCO[C@@H]1C=C(C(=O)O)C[C@H](N)[C@H]1NC(C)=O | 300 nM
22 | CC(=O)N[C@@H]1[C@@H](N)CC(C(=O)O)=C[C@H]1OCCCc1ccc(-c2ccccc2)cc1 | 90 nM
23 | CC(=O)N[C@H]1[C@H](O)C=C(C(=O)O)C[C@@H]1N | 6300 nM
24 | CC[C@@H](CCc1ccccc1)O[C@@H]1C=C(C(=O)O)C[C@H](N)[C@H]1NC(C)=O | 0.3 nM
25 | CCCCCCCCO[C@@H]1C=C(C(=O)O)C[C@H](N)[C@H]1NC(C)=O | 180 nM
26 | CCCCO[C@@H]1C=C(C(=O)O)C[C@H](N=C(N)N)[C@H]1NC(C)=O | 3 nM
27 | CCCCCCCO[C@@H]1C=C(C(=O)O)C[C@H](N)[C@H]1NC(C)=O | 270 nM
28 | CCCCCCO[C@@H]1C=C(C(=O)O)C[C@H](N)[C@H]1NC(C)=O | 150 nM
29 | CCCCCO[C@@H]1C=C(C(=O)O)C[C@H](N)[C@H]1NC(C)=O | 200 nM
30 | CC[C@@H](C)O[C@@H]1C=C(C(=O)O)C[C@H](NC(=N)N)[C@H]1NC(C)=O (stereo in doubt; 61) | 0.5 nM
